# Assay results reported in patent US20240082269A1, “METHODS AND PRODUCTS INCLUDING SPECIFIC CANNABINOIDS” (priority 2022, published 2024).
# Test: Four Hempson Oil studies taken together (safety, overall THCV effect)
# Format: in vivo, human
# Settings: daily use of 8 mg doses of THCV over 60-180 days
# Text: The following pre-clinical and clinical research has shown that small daily oral amounts of Hempson Oil®—a hemp-extract high in cannabidiol (CBD), tetrahydrocannabivarin (THCV), and cannabidivarin (CBDV)—have consistent effects of weight loss, reduction in abdominal girth, blood sugar (HgbA1c) and blood lipid ratios. These comparative examples are shown merely for the effect the active ingredients may have upon metabolic disorders and weight loss.
# The Hempson Oil Studies: from 2019 until April 2021, several independent high quality human trials were completed using an oral Hempson® oil in a micellized tincture or non-micellized oil in gel caps. All of the studies were NIH-supported. All studies were double-blind, placebo-controlled, multisite, and randomized effectiveness studies of a hemp extract, known as Hempson® oil that is high in CBD, THCV, and CBDV. The studies used either type II diabetics, obese or healthy adults. The studies done with micellized oil tincture used lower doses with micellized Hempson® oil because of increased the absorption and bioavailability of the cannabinoids.
# In each study, subjects were randomly assigned to either the Hempson Oil® group (100 subjects) or the control group (50 subjects). Each subject signed a study consent form. Subjects were instructed to orally ingest this study product once daily. All subjects were instructed not to change their eating, drinking, or exercise habits for the duration of this study.
# All of the study results reported below were statistically significant (p<0.05) compared to placebo results.
structure (smiles),measurement,value
"CCCc1cc(O)c2c(c1)OC(C)(C)[C@@H]1CCC(C)=C[C@@H]21 [THCV, tetrahydrocannabivarin]",A1C blood levels (diabetic measure),decrease in A1C blood levels
same,Abdominal girth,decrease of abdominal girth
same,Weight,statistically significant weight loss
